What is called IC50 is the concentration at which inhibition is half-maximal. A high value points to weaker potency in that assay.

The subject of one data set is DU-145 cells. Description: DU-145 cell growth inhibition test (MTT assay). It counts as cell-based. The following applies: 72 h. As for the experimental part: DU-145 Cell Growth Inhibition Test (MTT Assay)
(§1) II. Reagents and Consumable Materials
Culture medium: 90% EMEM+10% FBS (fetal calf serum); Pancreatin (0.25% (w/v) solution was formulated with PBS, 0.53 mM of EDTA was added in the formulation); PBS; 96-well culture plate.
(§2) 1. A plate (10 cm) of cells in logarithmic growth phase that were normally cultured was collected;
(§3) 2. The culture solution was sucked out. The plate was washed with 5 mL of PBS once or twice;
(§4) 3. PBS was sucked out. 1.5 mL of 0.25% pancreatin was added to the plate to infiltrate the cells for 1 min;
4. The culture plate was placed in an incubator. Digestion was carried out for about 1 min at 37° C.;
5. 3 mL of complete culture solution was added to the culture plate to stop the digestion. The cells were carefully scoured with micropipette (1 mL) to give a uniform cell suspension. The suspension was implanted into a 96-well cell culture disc by 4000 cells/100 μL per well. The culture plate was incubated overnight under 5% CO2 at 37° C. In day 2, 100 μL of culture solution comprising a compound was added in each well. The plate was further incubated for 72 h under 5% CO2 at 37° C.;
(§5) 6. The culture solution was sucked out;
(§6) 7. 100 μL of serum-free culture solution containing 0.5 mg/mL MTT was added in each well. The plate was incubated for 3 h;
(§7) 8. The culture solution was carefully sucked out;
(§8) 9. 100 μL of DMSO was added in each well and vibrated to dissolve;
(§9) 10. OD values were determined at 490 nM.
(§10) IV. Results and Treatments
(§11) 1. Calculation of Relative Inhibition Ratio The inhibition ratio of a compound on cell growth=(PC−n)/(PC−NC)×100%
(§12) PC: OD values of cells after normal growth in control wells without a compound;
(§13) n: OD values of cells after growth in test wells with a compound;
(§14) NC: Background OD values of blank wells without a compound and cells.
For orientation: Tetrazolium assays rely on reduction of a dye to a coloured formazan, in cell work by metabolically active cells.

The test system of another data set is Hep3B cells. Description: Hep3B cell growth inhibition test (SRB assay). The data set is classed as cell-based. The following applies: 72 h. As to the method: Hep3B Cell Growth Inhibition Test (SRB Assay)
as §1
(§15) Culture medium: 90% RPMI-1640+10% FBS; Pancreatin (0.25% (w/v) solution was formulated with PBS, 0.53 mM of EDTA was added in the formulation); PBS; 96-well culture plate.
as §2, §3
(§16) 3. 1.5 mL of 0.25% pancreatin was added to the plate to infiltrate the cells;
(§17) 4. The pancreatin was sucked out. The culture plate was placed in an incubator. Digestion was carried out for about 3 min at 37° C.;
5. 4 mL of complete culture solution was added to the culture plate to stop the digestion. The cells were carefully scoured with micropipette (1 mL) to give a uniform single cell suspension. The suspension was implanted into a 96-well cell culture plate by 5000 cells/100 μL per well. The culture plate was incubated overnight under 5% CO2 at 37° C. In day 2, 100 μL of culture solution comprising a compound was added in each well. The plate was further incubated for 72 h under 5% CO2 at 37° C.;
(§18) 6. The culture solution was sucked out. 100 uL of TCA fixed cells which were diluted to 10% were added to each well. The plate was kept in a refrigerator for 1 h at 4° C.
(§19) 7. TCA stationary liquid was sucked out. Each well was washed with 150 μL of ddH2O five times;
(§20) 8. After the stationary liquid was cleansed, the plate was dried in the air at the room temperature;
(§21) 9. 60 μL of SRB staining solution was added in each well. The well was stained for 15 min at the room temperature;
(§22) 10. The SRB staining solution was sucked out. Each well was washed with 150 μL of 1% glacial acetic acid five times;
(§23) 11. After the SRB staining solution was cleansed, the plate was dried in the air at the room temperature;
(§24) 12. 100 μL of 10 mM Tris was added in each well. The plate was vibrated to dissolve out SRB;
(§25) 13. OD values were determined at 570 nM.
as §10
1. Calculation of Relative Inhibition Ratio The inhibition ratio of the compound on cell growth=(PC−n)/(PC−NC)×100% […]

The subject of a further data set is MDA-MB-453 cells. The data set is described as follows: MDA-MB-453 cell growth inhibition test (SRB assay). It counts as cell-based, human. The following applies: growth inhibition at 2000 nM, 69.5 h. As to the method:
MDA-MB-453 Cell Growth Inhibition Test (SRB Assay)
Cell strains: MDA-MB-453 (human breast cancer cell strains); SRB: 0.4% (w/v) working solution was formulated with 1% glacial acetic acid, reserved at 4° C.; antitumor compounds; DMSO.
as §1
Culture medium: 90% L15+10% FBS; pancreatin (0.25% (w/v) solution was formulated with PBS, 0.53 mM of EDTA was added in the formulation); PBS; 96-well culture plate.
as §2, §3, §16, §17
5. 4 mL of complete culture solution was added to the culture plate to stop the digestion. The cells were carefully scoured with micropipette (1 ml) to give a uniform single cell suspension. The suspension was implanted into a 96-well cell culture plate by 7000 cells/100 μL per well. The culture plate was incubated overnight under 5% CO2 at 37° C. In day 2, 100 μL of culture solution comprising a compound was added in each well.
The plate was further incubated for 69.5 h under 5% CO2 at 37° C.;
as §18, §19, §20, §21, §22, §23, §24, §25, §10, §11, §12, §13, §14
(The SRB assay estimates cell density from bound dye.)

Another data set deals with 22Rv1 cells. The data set is described as follows: 22Rv1 cell growth inhibition test (SRB assay). The data set is classed as cell-based, human. The following applies: growth inhibition at 222 nM, 73 h. As to the method: 22Rv1 Cell Growth Inhibition Test (SRB Assay)
Cell strains: 22Rv1 (human prostate cancer cell strains); SRB: 0.4% (w/v) working solution was formulated with 1% glacial acetic acid, reserved at 4° C.; antitumor compounds; DMSO.
as §1, §15, §2, §3, §16, §17
5. 4 mL of complete culture solution was added to the culture plate to stop the digestion. The cells were carefully scoured with micropipette (1 ml) to give a uniform single cell suspension. The suspension was implanted into a 96-well cell culture plate by 7000 cells/100 μL per well. The culture plate was incubated overnight under 5% CO2 at 37° C. In day 2, 100 μL of culture solution comprising a compound was added in each well. The plate was further incubated for 73 h under 5% CO2 at 37° C.;
as §18, §19, §20, §21, §22, §23, §24, §25, §10, §11, §12, §13, §14

In a further data set the test system is NCI-H446 cells. Description: NCI-H446 cell growth inhibition test (MTT assay). The following applies: growth inhibition at 222 nM, 70 h. The data set is classed as cell-based, human. As for the experimental part:
NCI-H446 Cell Growth Inhibition Test (MTT Assay)
Cell strains: NCI-H446 (human small cell lung cancer cell strains); MTT; antitumor compounds; DMSO.
as §1, §15, §2, §3
(§26) 3. PBS was sucked out. 1.5 mL of 0.25% pancreatin was added to infiltrate the cells;
4. The culture plate was placed in an incubator. Digestion was carried out for about 3 min at 37° C.;
5. 3 mL of complete culture solution was added to the culture plate to stop the digestion. The cells were carefully scoured with micropipette (1 ml) to give a uniform cell suspension. The suspension was implanted into a 96-well cell culture disc by 4000 cells/100 μL per well. The culture plate was incubated overnight under 5% CO2 at 37° C. In day 2, 100 μL of culture solution comprising a compound was added in each well. The plate was further incubated for 70 h under 5% CO2 at 37° C.;
as §5, §6, §7
(§27) 9. 100 μL of DMSO was added into each well and vibrated to dissolve;
as §9, §10, §11, §12, §13, §14

Data set [1] in a line: Solubility of the compound in water. The data set is classed as physicochemical.
A further data set relates to BxPc-3 cells. Description: BxPc-3 cell growth inhibition test (MTT assay). It counts as cell-based, human. The following applies: growth inhibition at 2000 nM, 70 h. As to the method:
BxPc-3 Cell Growth Inhibition Test (MTT Assay)
Cell strains: BxPC-3 (human pancreatic cancer cell strains); MTT; antitumor compounds; DMSO.
as §1, §15, §2, §3, §26
4. The culture plate was placed in an incubator. Digestion was carried out for about 8 min at 37° C.;
5. 4.5 mL of complete culture solution was added to the culture plate to stop the digestion. The cells were carefully scoured with micropipette (1 ml) to give a uniform cell suspension. The suspension was implanted into a 96-well cell culture disc by 5000 cells/100 μL per well. The culture plate was incubated overnight under 5% CO2 at 37° C. In day 2, 100 μL of culture solution comprising a compound was added in each well. The plate was further incubated for 70 h under 5% CO2 at 37° C.;
as §5, §6, §7, §27, §9, §10, §11, §12, §13, §14

The subject of another data set is SK-OV-3 cells. Description: SK-OV-3 cell growth inhibition test (MTT assay). The data set is classed as cell-based, human. The following applies: growth inhibition at 667 nM, 69 h. As to the method:
SK-OV-3 Cell Growth Inhibition Test (MTT Assay)
Cell strains: SK-OV-3 (human ovarian cancer cell strains); MTT; antitumor compounds; DMSO.
as §1
Culture medium: 90% McCoy's 5A+10% FBS; Pancreatin (0.25% (w/v) solution was formulated with PBS, 0.53 mM of EDTA was added in the formulation); PBS; 96-well culture plate.
as §2, §3, §26
4. The pancreatin was sucked out. The culture plate was placed in an incubator. Digestion was carried out for about 5 min at 37° C.;
5. 4.5 mL of complete culture solution was added to the culture plate to stop the digestion. The cells were carefully scoured with micropipette (1 ml) to give a uniform cell suspension. The suspension was implanted into a 96-well cell culture disc by 4000 cells/100 μL per well. The culture plate was incubated overnight under 5% CO2 at 37° C. In day 2, 100 μL of culture solution comprising a compound was added in each well. The plate was further incubated for 69 h under 5% CO2 at 37° C.;
as §5, §6, §7, §8, §9, §10, §11, §12, §13, §14

A further data set has as its system A375 cells. The data set is described as follows: A375 cell growth inhibition test (MTT assay). The data set is classed as cell-based, human. The following applies: 72 h. As for the experimental part:
A375 Cell Growth Inhibition Test (MTT Assay)
as §1
Culture medium: 90% DMEM+10% FBS (fetal calf serum); Pancreatin (0.25% (w/v) solution was formulated with PBS, 0.53 mM of EDTA was added in the formulation); PBS; 96-well culture plate.
as §2, §3, §4
4. The culture plate was placed in an incubator. Digestion was carried out for about 5 min at 37° C.;
5. 3 mL of complete culture solution was added to the culture plate to stop the digestion. The cells were carefully scoured with micropipette (1 ml) to give a uniform cell suspension. The suspension was implanted into a 96-well cell culture disc by 3000 cells/100 μL per well. The culture plate was incubated overnight under 5% CO2 at 37° C. In day 2, 100 μL of culture solution comprising a compound was added in each well. The plate was further incubated for 72 h under 5% CO2 at 37° C.;
as §5, §6, §7, §8, §9, §10, §11, §12, §13, §14

Consider `COc1cccc2c1C(=O)c1c(O)c3c(c(O)c1C2=O)CC(O)(C(=O)COC(=O)CCC(=O)NCCOCCOCCOCCOCCOCCOCCOCCOCCOCCOCCOCCO)CC3OC1CC(n2cccc2)C(O)C(C)O1` (stereo not drawn) [Example 92], for which the IC50 with DU-145 cells was 61 nM; in the data set on Hep3B cells, 28 nM.
For `CC(=O)O.COc1cccc2c1C(=O)c1c(O)c3c(c(O)c1C2=O)CC(O)(C(=O)COC(=O)CCC(=O)N1CCN(CCO)CC1)CC3O[C@H]1C[C@H](n2cccc2)[C@H](O)[C@H](C)O1` (stereo partly drawn) [Example 77, 10-((3′-(pyrrol-1-yl)-2′,3′,6′-trideoxy-alphal-l-lyxo-hexylpyranyl)oxy)-7,8,9,10-tetrahydro-6,8,11-trihydroxy-13-oxo-14-(4-((4-(2-hydroxy)ethyl)piperazin-1-yl)-4-oxo-butyrato)-1-methoxy-5,12-naphthalenedione acetate], the “Inhibition Ratio (%)” value with MDA-MB-453 cells was found to be 79.7%; with 22Rv1 cells it was 57.9%; with NCI-H446 cells, 59.1%; in the data set on BxPc-3 cells, 83.3%; with SK-OV-3 cells, 60.4%. Moreover, the “solubility of the compound in water” value in data set [1] was “more than 10.6 mg/ml”.
Turning to `COc1cccc2c1C(=O)c1c(O)c3c(c(O)c1C2=O)CC(O)(C(=O)COC(=O)CCC(=O)NCCOCCN(C)C)CC3OC1CC(n2cccc2)C(O)C(C)O1` (stereo not drawn) [Example 6], the IC50 in the data set on A375 cells was 67 nM.

For the origin of these results see US9670242B2, “Tetracyclic anthraquinone derivatives” (Tianjin Hemay Bio-Tech Co., Ltd, priority 2012, dated 2017).
